Reference: publication PMC9157009, “Protein proximity networks and functional evaluation of the casein kinase 1 gamma family reveal unique roles for CK1γ3 in WNT signaling” (The Journal of Biological Chemistry, 2022)
Values joined by “and” are separate entries in the source; they are usually repeats but may differ in a detail not shown here. Equal entries are not always repeated.

Tests used:
[1] = target: T1, CK1γ1 (Homo sapiens, UniProt Q9HCP0); assay: Eurofins kinase enzymatic radiometric assay, CK1γ1; format: biochemical; settings: Km = ATP, 9-pt curve in duplicate
T1 construct: purchased Eurofins
Description: (§1) Details related to the substrate used, protein constructs, controls, and assay protocol for each kinase assay are included on the Eurofins website: https://www.eurofinsdiscoveryservices.com/.

[2] = target: T2, CK1γ3 (Homo sapiens, UniProt Q9Y6M4); assay: Eurofins kinase enzymatic radiometric assay, CK1γ3; format: biochemical; settings: Km = ATP, 9-pt curve in duplicate
T2 construct: purchased Eurofins
Description: as §1

[3] = target: T3, CAMK1B (Homo sapiens, UniProt Q6P2M8); assay: scanMAX binding assay, CAMK1B; settings: Percent of Control; legend and method: 1 μM; read-out: CAMK1B PoC @ 1 µM
T3 construct: purchased Eurofins DiscoverX Corporation
Description: (§2) As described previously, this commercial assay platform screens against 403 WT human kinases in binding assays and provides PoC values ([73]).

[4] = target: T4, CDKL5 (Homo sapiens, UniProt O76039); assay: scanMAX binding assay, CDKL5; settings: Percent of Control; legend and method: 1 μM; read-out: CDKL5 PoC @ 1 µM
T4 construct: purchased Eurofins DiscoverX Corporation
Description: as §2

[5] = target: T5, PCTK1 (Homo sapiens, UniProt Q00536); assay: scanMAX binding assay, PCTK1; settings: Percent of Control; legend and method: 1 μM; read-out: PCTK1 PoC @ 1 µM
T5 construct: purchased Eurofins DiscoverX Corporation
Description: as §2

[6] = target: T6, GSK3β (Homo sapiens, UniProt P49841); assay: scanMAX binding assay, GSK3β; settings: Percent of Control; legend and method: 1 μM; read-out: GSK3β PoC @ 1 µM
T6 construct: purchased Eurofins DiscoverX Corporation
Description: as §2

[7] = target: T7, GSK3α (Homo sapiens, UniProt P49840); assay: scanMAX binding assay, GSK3α; settings: Percent of Control; legend and method: 1 μM; read-out: GSK3α PoC @ 1 µM
T7 construct: purchased Eurofins DiscoverX Corporation
Description: as §2

[8] = target: T8, CK1γ2 (Homo sapiens, UniProt P78368); assay: scanMAX binding assay, CK1γ2; settings: Percent of Control; legend and method: 1 μM; read-out: CK1γ2 PoC @ 1 µM
T8 construct: purchased Eurofins
Description: as §2

[9] = target: T9, CDK7 (Homo sapiens, UniProt P50613); assay: scanMAX binding assay, CDK7; settings: Percent of Control; legend and method: 1 μM; read-out: CDK7 PoC @ 1 µM
T9 construct: purchased Eurofins DiscoverX Corporation
Description: as §2

[10] = target: T10, PCTK3 (Homo sapiens, UniProt Q07002); assay: scanMAX binding assay, PCTK3; settings: Percent of Control; legend and method: 1 μM; read-out: PCTK3 PoC @ 1 µM
T10 construct: purchased Eurofins DiscoverX Corporation
Description: as §2

[11] = target: T11, PCTK2 (Homo sapiens, UniProt Q00537); assay: scanMAX binding assay, PCTK2; settings: Percent of Control; legend and method: 1 μM; read-out: PCTK2 PoC @ 1 µM
T11 construct: purchased Eurofins DiscoverX Corporation
Description: as §2

[12] = target: T12, ICK (Homo sapiens, UniProt Q9UPZ9); assay: scanMAX binding assay, ICK; settings: Percent of Control; legend and method: 1 μM; read-out: ICK PoC @ 1 µM
T12 construct: purchased Eurofins DiscoverX Corporation
Description: as §2

[13] = target: T13, DCAMKL3 (Homo sapiens, UniProt Q9C098); assay: scanMAX binding assay, DCAMKL3; settings: Percent of Control; legend and method: 1 μM; read-out: DCAMKL3 PoC @ 1 µM
T13 construct: purchased Eurofins DiscoverX Corporation
Description: as §2

[14] = target: T14, ERK8 (Homo sapiens, UniProt Q8TD08); assay: scanMAX binding assay, ERK8; settings: Percent of Control; legend and method: 1 μM; read-out: ERK8 PoC @ 1 µM
T14 construct: purchased Eurofins DiscoverX Corporation
Description: as §2

[15] = target: T2, CK1γ3; assay: scanMAX binding assay, CK1γ3; settings: Percent of Control; legend and method: 1 μM; read-out: CK1γ3 PoC @ 1 µM
Description: as §2

[16] = target: T15, PFTK1 (Homo sapiens, UniProt O94921); assay: scanMAX binding assay, PFTK1; settings: Percent of Control; legend and method: 1 μM; read-out: PFTK1 PoC @ 1 µM
T15 construct: purchased Eurofins DiscoverX Corporation
Description: as §2

[17] = target: T1, CK1γ1; assay: scanMAX binding assay, CK1γ1; settings: Percent of Control; legend and method: 1 μM; read-out: CK1γ1 PoC @ 1 µM
Description: as §2

[18] = target: T16, DYRK1B (Homo sapiens, UniProt Q9Y463); assay: scanMAX binding assay, DYRK1B; settings: Percent of Control; legend and method: 1 μM; read-out: DYRK1B PoC @ 1 µM
T16 construct: purchased Eurofins DiscoverX Corporation
Description: as §2

[19] = target: T17, DYRK2 (Homo sapiens, UniProt Q92630); assay: scanMAX binding assay, DYRK2; settings: Percent of Control; legend and method: 1 μM; read-out: DYRK2 PoC @ 1 µM
T17 construct: purchased Eurofins DiscoverX Corporation
Description: as §2

[20] = test system: BAR reporter (β-catenin-dependent WNT signaling); assay: BAR luciferase transcriptional reporter assay in HEK293T B/R cells; format: cell-based, human; settings: for activation of the BAR reporter: HEK293T B/R cells, 10 μM compound for 18 h, compared with dimethyl sulfoxide and FP1
Method: All luciferase reporter assays were performed as previously described ([15], [43]). […] In both loss-of-function and gain-of-function experiments, treatments (WNT3A CM or drug) were added 18 h before harvesting cells. Conditions were plated in triplicate, and Renilla normalized values were averaged across triplicates to yield the data presented and standard error. Each assay was repeated in biological triplicate, unless otherwise stated. Firefly luciferase and the Renilla control were detected using the Promega Dual-Luciferase Reporter Assay System per the manufacturer’s protocol (Promega; catalog no.: E1960). Plates were read on the Victor Nivo plate reader (PerkinElmer).

[21] = target: T18, CK1γ2 (NLuc-CK1γ2) (Homo sapiens, UniProt P78368); assay: NanoBRET cellular target engagement assay, NLuc-CK1γ2 in HEK293T cells; format: cell-based; settings: live HEK293T cells, 0.5 μM tracer K-10
T18 construct: host or cells: HEK293T
Method: (§3) HEK293T cells (hypotriploid, fetal) were purchased from ATCC. These cells were grown in Dulbecco’s modified Eagle’s medium (Gibco) supplemented with 10% (v/v) fetal bovine serum (Corning). They were incubated in 5% CO2 at 37 °C and passaged every 72 h with trypsin and not allowed to reach confluency. Constructs for NanoBRET measurements of CK1γ2 (NLuc-CK1γ2) and GSK3β (NLuc-GSK3β) were kindly provided by Promega. NanoBRET assays were carried out as described previously ([74]). Preferred NLuc orientations, both N-terminal in this case, are indicated in parentheses after each construct. Assays were carried out in dose–response as described by the manufacturer using 0.5 μM of tracer K-10 for CK1γ2 and 0.063 μM of tracer K-8 for GSK3β. Two biological replicates were executed with two technical replicates to produce the graphs with error bars shown in Figures 6E, 7E, 8, A and B. Tracer titration curves for these kinases that motivated our tracer selection and working concentration can be found on the Promega website.

[22] = target: T19, GSK3β (NLuc-GSK3β) (Homo sapiens, UniProt P49841); assay: NanoBRET cellular target engagement assay, NLuc-GSK3β in HEK293T cells; format: cell-based; settings: live HEK293T cells, 0.063 μM tracer K-8; read-out: NL-GSK3β NanoBRET IC50
T19 construct: host or cells: HEK293T
Method: as §3

[23] = test system: β-catenin-dependent transcription; settings: siRNA screen, BAR firefly luciferase reporter, ref Biechele et al, cited from earlier work; for Average BAR firefly Luciferase (Raw): raw signal per siRNA target

T1 sequence (Q9HCP0 whole entry): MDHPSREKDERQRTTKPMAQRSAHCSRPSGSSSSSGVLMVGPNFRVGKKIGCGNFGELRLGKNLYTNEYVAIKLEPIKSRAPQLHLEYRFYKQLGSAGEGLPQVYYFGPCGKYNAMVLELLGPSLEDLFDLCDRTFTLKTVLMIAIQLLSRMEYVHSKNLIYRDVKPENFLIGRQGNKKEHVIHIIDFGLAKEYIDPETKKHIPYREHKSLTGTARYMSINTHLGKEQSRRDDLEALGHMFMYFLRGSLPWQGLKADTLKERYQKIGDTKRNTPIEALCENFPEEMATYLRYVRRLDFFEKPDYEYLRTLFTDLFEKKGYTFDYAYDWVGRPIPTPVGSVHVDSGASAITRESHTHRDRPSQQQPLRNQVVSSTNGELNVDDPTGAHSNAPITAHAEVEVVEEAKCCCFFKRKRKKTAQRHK
T2 sequence (Q9Y6M4 whole entry): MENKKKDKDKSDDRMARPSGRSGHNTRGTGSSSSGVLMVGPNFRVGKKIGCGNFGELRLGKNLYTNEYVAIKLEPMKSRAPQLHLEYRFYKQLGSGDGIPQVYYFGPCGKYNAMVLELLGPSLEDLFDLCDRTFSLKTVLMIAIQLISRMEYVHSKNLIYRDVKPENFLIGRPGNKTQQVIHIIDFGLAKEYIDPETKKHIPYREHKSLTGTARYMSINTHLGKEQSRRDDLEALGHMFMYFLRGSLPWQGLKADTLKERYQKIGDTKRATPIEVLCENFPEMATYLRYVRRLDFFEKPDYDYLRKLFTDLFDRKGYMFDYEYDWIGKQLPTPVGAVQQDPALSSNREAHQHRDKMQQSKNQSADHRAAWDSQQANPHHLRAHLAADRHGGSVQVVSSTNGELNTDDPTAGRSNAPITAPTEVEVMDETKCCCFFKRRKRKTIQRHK
T5 sequence (Q00536 whole entry): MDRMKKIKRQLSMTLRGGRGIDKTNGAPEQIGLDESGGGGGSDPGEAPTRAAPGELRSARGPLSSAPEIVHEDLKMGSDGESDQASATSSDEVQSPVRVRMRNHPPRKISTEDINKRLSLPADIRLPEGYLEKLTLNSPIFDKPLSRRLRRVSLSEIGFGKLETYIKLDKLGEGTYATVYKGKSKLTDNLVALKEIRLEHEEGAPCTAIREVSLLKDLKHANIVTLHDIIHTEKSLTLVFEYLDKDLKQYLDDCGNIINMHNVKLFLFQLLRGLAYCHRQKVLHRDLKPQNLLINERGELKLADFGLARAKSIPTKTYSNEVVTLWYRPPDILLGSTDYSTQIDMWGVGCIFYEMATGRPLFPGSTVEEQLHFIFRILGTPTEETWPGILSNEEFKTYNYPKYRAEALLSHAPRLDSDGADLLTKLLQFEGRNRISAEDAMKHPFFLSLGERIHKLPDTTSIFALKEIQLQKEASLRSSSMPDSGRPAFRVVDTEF
T13 sequence (Q9C098 whole entry): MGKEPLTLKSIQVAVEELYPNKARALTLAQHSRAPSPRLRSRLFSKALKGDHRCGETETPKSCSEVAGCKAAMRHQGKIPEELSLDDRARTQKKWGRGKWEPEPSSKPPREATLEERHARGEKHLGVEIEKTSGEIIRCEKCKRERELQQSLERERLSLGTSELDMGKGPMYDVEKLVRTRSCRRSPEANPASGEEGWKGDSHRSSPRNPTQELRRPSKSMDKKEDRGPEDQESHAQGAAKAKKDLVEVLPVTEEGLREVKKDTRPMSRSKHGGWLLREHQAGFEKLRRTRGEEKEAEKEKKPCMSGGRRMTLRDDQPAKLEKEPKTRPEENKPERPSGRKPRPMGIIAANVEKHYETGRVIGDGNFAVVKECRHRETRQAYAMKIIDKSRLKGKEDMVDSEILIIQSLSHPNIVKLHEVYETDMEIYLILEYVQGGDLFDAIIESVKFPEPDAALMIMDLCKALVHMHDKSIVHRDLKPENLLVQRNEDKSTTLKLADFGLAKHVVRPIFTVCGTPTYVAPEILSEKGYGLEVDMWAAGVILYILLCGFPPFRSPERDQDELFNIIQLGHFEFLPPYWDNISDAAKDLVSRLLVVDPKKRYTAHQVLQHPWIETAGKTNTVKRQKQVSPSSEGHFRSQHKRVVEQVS
T17 sequence (Q92630 whole entry): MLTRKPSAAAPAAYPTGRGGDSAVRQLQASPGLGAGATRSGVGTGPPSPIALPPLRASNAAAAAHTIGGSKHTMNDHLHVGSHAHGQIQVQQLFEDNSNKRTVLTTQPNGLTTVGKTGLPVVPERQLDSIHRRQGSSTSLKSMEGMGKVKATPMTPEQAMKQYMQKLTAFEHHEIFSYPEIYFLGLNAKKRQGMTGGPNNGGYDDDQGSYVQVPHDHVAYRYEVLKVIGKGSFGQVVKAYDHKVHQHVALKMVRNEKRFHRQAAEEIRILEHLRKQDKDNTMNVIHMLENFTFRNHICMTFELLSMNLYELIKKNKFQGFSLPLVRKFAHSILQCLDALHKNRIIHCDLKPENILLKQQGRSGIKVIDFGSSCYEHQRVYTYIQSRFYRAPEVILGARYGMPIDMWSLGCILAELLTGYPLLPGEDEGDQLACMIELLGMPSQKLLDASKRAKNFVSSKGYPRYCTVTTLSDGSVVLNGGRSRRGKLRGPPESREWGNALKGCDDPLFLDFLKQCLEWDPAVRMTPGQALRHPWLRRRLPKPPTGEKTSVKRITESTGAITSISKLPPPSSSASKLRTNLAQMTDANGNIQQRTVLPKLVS
T19 sequence (P49841 whole entry): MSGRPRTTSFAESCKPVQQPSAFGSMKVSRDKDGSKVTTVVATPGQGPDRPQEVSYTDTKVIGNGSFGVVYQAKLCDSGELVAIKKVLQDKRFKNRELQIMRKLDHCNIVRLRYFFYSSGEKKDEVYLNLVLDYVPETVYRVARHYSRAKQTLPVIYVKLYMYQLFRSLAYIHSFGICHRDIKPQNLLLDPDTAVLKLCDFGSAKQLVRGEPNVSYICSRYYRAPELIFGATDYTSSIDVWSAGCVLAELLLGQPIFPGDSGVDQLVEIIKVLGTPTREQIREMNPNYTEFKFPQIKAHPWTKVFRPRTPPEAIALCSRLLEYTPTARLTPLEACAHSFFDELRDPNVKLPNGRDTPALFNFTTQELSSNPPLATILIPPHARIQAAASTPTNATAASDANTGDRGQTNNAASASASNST
T6 sequence (P49841 whole entry): as above
T10 sequence (Q07002 whole entry): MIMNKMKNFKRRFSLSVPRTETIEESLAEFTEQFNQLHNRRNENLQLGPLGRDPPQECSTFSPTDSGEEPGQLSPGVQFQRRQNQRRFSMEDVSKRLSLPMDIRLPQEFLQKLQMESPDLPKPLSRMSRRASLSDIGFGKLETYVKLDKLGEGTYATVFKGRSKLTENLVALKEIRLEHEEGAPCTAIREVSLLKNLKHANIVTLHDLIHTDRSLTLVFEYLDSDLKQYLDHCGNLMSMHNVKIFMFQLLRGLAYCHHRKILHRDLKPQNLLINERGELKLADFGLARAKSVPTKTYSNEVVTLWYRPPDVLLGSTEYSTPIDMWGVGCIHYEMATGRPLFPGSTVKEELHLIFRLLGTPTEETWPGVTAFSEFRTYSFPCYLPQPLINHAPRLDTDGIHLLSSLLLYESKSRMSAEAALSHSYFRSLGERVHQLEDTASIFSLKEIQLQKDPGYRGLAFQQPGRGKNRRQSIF
T7 sequence (P49840 whole entry): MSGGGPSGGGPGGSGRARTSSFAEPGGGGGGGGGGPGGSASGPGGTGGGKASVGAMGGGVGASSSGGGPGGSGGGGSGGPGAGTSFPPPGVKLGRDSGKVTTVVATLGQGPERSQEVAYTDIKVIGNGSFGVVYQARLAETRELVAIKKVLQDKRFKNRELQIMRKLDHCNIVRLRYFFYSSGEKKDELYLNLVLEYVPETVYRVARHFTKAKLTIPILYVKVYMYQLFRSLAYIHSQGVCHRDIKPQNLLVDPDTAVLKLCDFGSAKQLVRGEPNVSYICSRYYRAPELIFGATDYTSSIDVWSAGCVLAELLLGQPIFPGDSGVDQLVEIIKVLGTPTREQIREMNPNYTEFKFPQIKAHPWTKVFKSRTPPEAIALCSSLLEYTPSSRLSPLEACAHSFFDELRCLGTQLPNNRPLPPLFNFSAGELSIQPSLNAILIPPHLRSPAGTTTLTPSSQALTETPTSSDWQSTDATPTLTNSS
T4 sequence (O76039 whole entry): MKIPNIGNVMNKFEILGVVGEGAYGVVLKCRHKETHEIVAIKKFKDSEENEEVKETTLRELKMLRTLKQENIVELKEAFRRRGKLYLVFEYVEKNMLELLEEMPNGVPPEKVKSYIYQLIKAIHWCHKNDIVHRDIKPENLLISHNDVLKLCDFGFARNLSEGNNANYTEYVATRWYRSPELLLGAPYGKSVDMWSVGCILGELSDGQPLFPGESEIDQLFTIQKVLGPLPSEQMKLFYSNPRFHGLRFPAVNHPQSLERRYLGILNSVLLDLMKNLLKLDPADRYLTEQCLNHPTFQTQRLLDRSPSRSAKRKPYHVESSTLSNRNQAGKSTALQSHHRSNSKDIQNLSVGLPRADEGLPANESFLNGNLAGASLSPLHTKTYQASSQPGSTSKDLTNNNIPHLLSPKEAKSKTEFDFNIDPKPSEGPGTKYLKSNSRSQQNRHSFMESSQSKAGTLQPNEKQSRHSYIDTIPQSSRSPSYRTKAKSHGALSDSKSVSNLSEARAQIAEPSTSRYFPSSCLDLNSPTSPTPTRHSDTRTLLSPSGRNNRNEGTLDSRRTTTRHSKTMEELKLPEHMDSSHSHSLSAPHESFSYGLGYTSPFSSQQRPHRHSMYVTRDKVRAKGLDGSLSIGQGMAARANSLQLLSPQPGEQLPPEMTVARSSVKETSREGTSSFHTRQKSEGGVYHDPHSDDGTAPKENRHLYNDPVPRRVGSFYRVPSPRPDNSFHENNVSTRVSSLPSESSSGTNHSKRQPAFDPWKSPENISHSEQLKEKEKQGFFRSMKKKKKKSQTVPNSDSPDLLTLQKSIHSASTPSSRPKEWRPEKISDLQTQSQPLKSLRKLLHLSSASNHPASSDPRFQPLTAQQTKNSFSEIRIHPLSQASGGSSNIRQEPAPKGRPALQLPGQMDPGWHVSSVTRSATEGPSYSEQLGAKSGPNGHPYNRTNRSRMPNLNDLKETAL

For `CN(C)CC(=O)Nc1n[nH]c2ccc(-c3cn(Cc4ccccc4)nn3)cc12` [AKI00000062a], which IC50 [1] is on record?
Its IC50 is ≤ 275 nM and 275 nM.

What about the IC50 [2] of the same compound?
Its IC50 is ≤ 275 nM and 168 nM.

And the remaining binding at 1 µM [3]?
The remaining binding at 1 µM was 0%.

What about the remaining binding at 1 µM [4] of the same compound?
The remaining binding at 1 µM was 0.2%.

And the remaining binding at 1 µM [5]?
Its remaining binding at 1 µM is 0.2%.

And the remaining binding at 1 µM [6]?
Its remaining binding at 1 µM is 0.4%.

And the remaining binding at 1 µM [7]?
Its remaining binding at 1 µM is 0.9%.

And the remaining binding at 1 µM [8]?
The remaining binding at 1 µM was 1%.

And the remaining binding at 1 µM [9]?
Its remaining binding at 1 µM is 1.2%.

What about the remaining binding at 1 µM [10] of the same compound?
Its remaining binding at 1 µM is 1.2%.

And the remaining binding at 1 µM [11]?
Its remaining binding at 1 µM is 1.4%.

And the remaining binding at 1 µM [12]?
Its remaining binding at 1 µM is 1.6%.

What about the remaining binding at 1 µM [13] of the same compound?
Its remaining binding at 1 µM is 1.9%.

What about the remaining binding at 1 µM [14] of the same compound?
The remaining binding at 1 µM was 2.5%.

And the remaining binding at 1 µM [15]?
Its remaining binding at 1 µM is 3.3%.

What about the remaining binding at 1 µM [16] of the same compound?
The remaining binding at 1 µM was 3.5%.

And the remaining binding at 1 µM [17]?
Its remaining binding at 1 µM is 5.2%.

And the remaining binding at 1 µM [18]?
Its remaining binding at 1 µM is 6%.

And the remaining binding at 1 µM [19]?
The remaining binding at 1 µM was 7.2%.

And the “activation of the BAR reporter” value [20]?
Its value is “robustly activated”.

With `Cc1cc(Nc2cc(C3CC3)[nH]n2)nc(Nc2ccc(CC#N)cc2)n1` [APY69, reference compound] as the compound, how does the “NL-CK1γ2 NanoBRET IC50” value [21] read?
The value was “inactive”.

And the IC50 [22]?
Its IC50 is 0.23 nM.

Which “BAR activation by CK1γ3 overexpression in the absence of WNT3A CM” value ([20]; HEK293T B/R cells transfected 14 h, 10 μM C59 for 18 h) does the source give for `Cc1cc(-c2ccc(CC(=O)Nc3ccc(-c4cccnc4)cc3)cc2)ccn1` [C59, reference compound] here?
Its value is “blocked this activation”.

With `Cc1c[nH]c(-c2cnc(NCCNc3ccc(C#N)cn3)nc2-c2ccc(Cl)cc2Cl)n1` [CHIR99021, reference compound] as the compound, how does the “activation of the BAR reporter” value [20] read?
The value was “robustly activated”.

What does the source list for EPHA2?
Fold over control siRNA [23]: 0.4994; Average BAR firefly Luciferase (Raw) [23]: 13210

With ERBB2 as the compound, how does the “Fold over control siRNA” value [23] read?
Its value is 3.138.

And the “Average BAR firefly Luciferase (Raw)” value [23]?
The value was 83000.
